In patent US10980813B2, “Antifungal composition” (SEED RESEARCH INSTITUTE CO., LTD., priority 2017, dated 2021):
≈ marks a conversion by molar mass, not a printed value.

Assays:
Test in all cases: Antifungal activity, MIC by disc (diffusion) method
C. parapsilosis = assay type: cell-based, Candida parapsilosis; details: Lodderomyces parapsilosis, YMG agar, 24 hr at 28° C., read-out: MIC (minimum inhibitory concentration) C. parapsilosis
Procedure: (§1) Measurement Method of Antifungal Activity in Various Compounds
(§2) The minimum inhibitory concentration (MIC) was measured by a disc method (diffusion method). The disc method is one kind of the diffusion method, and is a method in which filter paper (disc) impregnated with an antifungal substance at a given concentration is placed on an agar medium (test plate) coated with a test bacterium and cultivated. The disc absorbs water in the medium, diffuses the antifungal substance and forms a given concentration gradient. As a result, the test bacterium forms a growth inhibition zone (circle) in the periphery of the disc, and the level of sensitivity to the antifungal substance is determined from the diameter of the inhibition circle.
(§3) Using the aforementioned method, MIC of various compounds was measured.
(§4) i: In a 100 mL flask, 20 mL of YMG or Mueller Hinton medium is produced.
(§5) ii: A loopful of the test bacterium is dissolved in the medium.
(§6) iii: The medium is cultured at 200 rpm for 24 hr in a rotary shaker set to 28° C.
(§7) i: In a 300 mL flask, 100 mL of YMG or Mueller Hinton agar medium (low melting point agar) is produced.
(§8) ii: After cooling to 37° C.-40° C., preculture medium (1 mL) is added and the mixture is agitated.
(§9) iii: The mixture is dispensed to a square petri dish (size: 100*150*17 mm) by 20 mL each.
(§10) iv: The dish is stood at room temperature until the agar is solidified.
(§11) i: The compound is diluted in ½ dilution series in 10 stages (timely changed according to compound), 50 μL of solution/pulp at each dilution stage is produced, the organic solvent is dried at room temperature and placed on a test plate.
(§12) ii: After culturing T. rubrum for 48 hr and other test bacteria for 24 hr at 28° C. in an incubator, the size of the inhibition circle was measured.
(§13) The medium composition for culture which was used for the aforementioned preculture is shown below.
(§14) [Medium Compositions for Preculture and Test Plate]
(§15) <<YMG Medium>>: For Fungus
(§16) Agar, powder 0.8% * added only when producing test plate

T. rubrum = assay type: cell-based; details: Trichophyton rubrum, YMG agar, 48 hr at 28° C., read-out: MIC (minimum inhibitory concentration) T. rubrum
Procedure: as §1, §2, §3, §4, §5, §6, §7, §8, §9, §10, §11, §12, §13, §14, §15, §16

Saccharomyces = assay type: cell-based; details: YMG agar, 24 hr at 28° C., read-out: MIC (minimum inhibitory concentration) Saccharomyces
Procedure: as §1, §2, §3, §4, §5, §6, §7, §8, §9, §10, §11, §12, §13, §14, §15, §16

T. mentagrophytes = assay type: cell-based; details: Trichophyton mentagrophytes, YMG agar, 24 hr at 28° C., read-out: MIC (minimum inhibitory concentration) T. mentagrophytes
Procedure: as §1, §2, §3, §4, §5, §6, §7, §8, §9, §10, §11, §12, §13, §14, §15, §16

A. fumigatus = assay type: cell-based; details: Aspergillus fumigatus, YMG agar, 24 hr at 28° C., read-out: MIC (minimum inhibitory concentration) A. fumigatus
Procedure: as §1, §2, §3, §4, §5, §6, §7, §8, §9, §10, §11, §12, §13, §14, §15, §16

| SMILES | MIC (C. parapsilosis) [µg/mL] | MIC (T. rubrum) [µg/mL] | MIC (Saccharomyces) [µg/mL] | MIC (T. mentagrophytes) [µg/mL] | MIC (A. fumigatus) [µg/mL] |
| --- | --- | --- | --- | --- | --- |
| O=S1(=O)N=C2C(=COc3ccc(Cl)cc32)C2ON21 (stereo not drawn) [II-6c] | 4 (≈ 14.1 µM) | 1 (≈ 3.51 µM) | 4 (≈ 14.1 µM) | 1 (≈ 3.51 µM) | 4 (≈ 14.1 µM) |
| O=S1(=O)N=CC(CCc2ccc(F)cc2)=N1 [I-4c] | 8 (≈ 33.3 µM) | 2 (≈ 8.32 µM) | 8 (≈ 33.3 µM) | 2 (≈ 8.32 µM) | 8 (≈ 33.3 µM) |
| O=S1(=O)Oc2ccc(Cl)cc2C2ON21 (stereo not drawn) [II-1b] | 4 (≈ 17.1 µM) | 1 (≈ 4.28 µM) | 4 (≈ 17.1 µM) | 1 (≈ 4.28 µM) | 4 (≈ 17.1 µM) |
| O=[N+]([O-])c1cc(Cl)cc2c1OS(=O)(=O)N1OC21 (stereo not drawn) [II-1i] | 4 (≈ 14.4 µM) | 1 (≈ 3.59 µM) | 4 (≈ 14.4 µM) | 1 (≈ 3.59 µM) | 4 (≈ 14.4 µM) |
| CC1=NS(=O)(=O)OC1C (stereo not drawn) [I-3a] | 4 (≈ 26.8 µM) | 2 (≈ 13.4 µM) | 4 (≈ 26.8 µM) | 2 (≈ 13.4 µM) | 4 (≈ 26.8 µM) |
| CC1=NS(=O)(=O)N2OC12C (stereo not drawn) [II-4b] | 16 (≈ 98.7 µM) | 4 (≈ 24.7 µM) | 16 (≈ 98.7 µM) | 4 (≈ 24.7 µM) | 16 (≈ 98.7 µM) |
| CC1=CC2(c3ccccc3)ON2S(=O)(=O)N1 (stereo not drawn) [II-2c] | 8 (≈ 33.6 µM) | 2 (≈ 8.39 µM) | 8 (≈ 33.6 µM) | 2 (≈ 8.39 µM) | 8 (≈ 33.6 µM) |
| CC1=C(C)C2(C)ON2S(=O)(=O)O1 (stereo not drawn) [II-2a] | 8 (≈ 41.8 µM) | 2 (≈ 10.5 µM) | 8 (≈ 41.8 µM) | 2 (≈ 10.5 µM) | 8 (≈ 41.8 µM) |
| COC(=O)c1ccc2c(c1)C1ON1S(=O)(=O)O2 (stereo not drawn) [II-1f] | 4 (≈ 15.6 µM) | 1 (≈ 3.89 µM) | 4 (≈ 15.6 µM) | 1 (≈ 3.89 µM) | 4 (≈ 15.6 µM) |
| CC1=CC(C)=NS(=O)(=O)N1 [I-2b] | 16 (≈ 99.9 µM) | 2 (≈ 12.5 µM) | 16 (≈ 99.9 µM) | 2 (≈ 12.5 µM) | 16 (≈ 99.9 µM) |
| COc1ccc2c(c1)C=NS(=O)(=O)O2 [I-1d] | 8 (≈ 37.5 µM) | 2 (≈ 9.38 µM) | 8 (≈ 37.5 µM) | 2 (≈ 9.38 µM) | 8 (≈ 37.5 µM) |
| CCC1OS(=O)(=O)N2OC12CC (stereo not drawn) [II-3b] | 4 (≈ 20.7 µM) | 2 (≈ 10.4 µM) | 4 (≈ 20.7 µM) | 2 (≈ 10.4 µM) | 4 (≈ 20.7 µM) |
| CC1=CC2(C)ON2S(=O)(=O)N1 (stereo not drawn) [II-2b] | 16 (≈ 90.8 µM) | 2 (≈ 11.4 µM) | 16 (≈ 90.8 µM) | 2 (≈ 11.4 µM) | 16 (≈ 90.8 µM) |
| O=S1(=O)N=CC2=COc3ccc(F)cc3C2=N1 [I-6b] | 4 (≈ 15.9 µM) | 1 (≈ 3.96 µM) | 4 (≈ 15.9 µM) | 1 (≈ 3.96 µM) | 4 (≈ 15.9 µM) |
| O=S1(=O)OCC2(c3ccc(Cl)cc3)ON21 (stereo not drawn) [II-3d] | 8 (≈ 32.3 µM) | 2 (≈ 8.08 µM) | 8 (≈ 32.3 µM) | 2 (≈ 8.08 µM) | 8 (≈ 32.3 µM) |
| O=S1(=O)N=CC(CCc2ccc(Cl)cc2)=N1 [I-4d] | 8 (≈ 31.2 µM) | 2 (≈ 7.79 µM) | 8 (≈ 31.2 µM) | 2 (≈ 7.79 µM) | 8 (≈ 31.2 µM) |
| N#Cc1ccc2c(c1)C1ON1S(=O)(=O)O2 (stereo not drawn) [II-1g] | 4 (≈ 17.8 µM) | 1 (≈ 4.46 µM) | 4 (≈ 17.8 µM) | 1 (≈ 4.46 µM) | 4 (≈ 17.8 µM) |
| O=S1(=O)N=Cc2cc(Cl)ccc2O1 [I-1b] | 4 (≈ 18.4 µM) | 1 (≈ 4.59 µM) | 4 (≈ 18.4 µM) | 1 (≈ 4.59 µM) | 4 (≈ 18.4 µM) |
| CC1=NS(=O)(=O)Nc2ccccc21 [I-1k] | 8 (≈ 40.8 µM) | 2 (≈ 10.2 µM) | 8 (≈ 40.8 µM) | 2 (≈ 10.2 µM) | 8 (≈ 40.8 µM) |
| CC1=NS(=O)(=O)Oc2ccccc21 [I-1j] | 8 (≈ 40.6 µM) | 2 (≈ 10.1 µM) | 8 (≈ 40.6 µM) | 2 (≈ 10.1 µM) | 8 (≈ 40.6 µM) |
| O=S1(=O)Oc2c(Cl)cc(Cl)cc2C2ON21 (stereo not drawn) [II-1h] | 4 (≈ 14.9 µM) | 1 (≈ 3.73 µM) | 4 (≈ 14.9 µM) | 1 (≈ 3.73 µM) | 4 (≈ 14.9 µM) |
| CCCCCCCCN1CC2(c3ccccc3)ON2S1(=O)=O (stereo not drawn) [II-3e] | 8 (≈ 24.7 µM) | 2 (≈ 6.16 µM) | 8 (≈ 24.7 µM) | 2 (≈ 6.16 µM) | 8 (≈ 24.7 µM) |
| CC1OS(=O)(=O)N2OC12C (stereo not drawn) [II-3a] | 4 (≈ 24.2 µM) | 2 (≈ 12.1 µM) | 4 (≈ 24.2 µM) | 2 (≈ 12.1 µM) | 4 (≈ 24.2 µM) |
| O=S1(=O)Oc2ccc(F)cc2C2ON21 (stereo not drawn) [II-1a] | 4 (≈ 18.4 µM) | 1 (≈ 4.6 µM) | 4 (≈ 18.4 µM) | 1 (≈ 4.6 µM) | 4 (≈ 18.4 µM) |
| O=S1(=O)N=CC2=COc3ccccc3C2=N1 [I-6a] | 4 (≈ 17.1 µM) | 1 (≈ 4.27 µM) | 4 (≈ 17.1 µM) | 1 (≈ 4.27 µM) | 4 (≈ 17.1 µM) |
| CCC1=NS(=O)(=O)OC1CC (stereo not drawn) [I-3b] | 4 (≈ 22.6 µM) | 2 (≈ 11.3 µM) | 4 (≈ 22.6 µM) | 2 (≈ 11.3 µM) | 4 (≈ 22.6 µM) |
| CC1=C(C)C2(c3ccccc3)ON2S(=O)(=O)N1 (stereo not drawn) [II-2d] | 8 (≈ 31.7 µM) | 2 (≈ 7.93 µM) | 8 (≈ 31.7 µM) | 2 (≈ 7.93 µM) | 8 (≈ 31.7 µM) |
| CC12ON1S(=O)(=O)Nc1ccccc12 (stereo not drawn) [II-1k] | 8 (≈ 37.7 µM) | 2 (≈ 9.42 µM) | 8 (≈ 37.7 µM) | 2 (≈ 9.42 µM) | 8 (≈ 37.7 µM) |
| CC1=C(C)C(c2ccccc2)=NS(=O)(=O)N1 [I-2d] | 8 (≈ 33.9 µM) | 2 (≈ 8.46 µM) | 8 (≈ 33.9 µM) | 2 (≈ 8.46 µM) | 8 (≈ 33.9 µM) |
| O=S1(=O)N=C(c2ccccc2)c2cc(Cl)ccc2N1 [I-1l] | 8 (≈ 27.3 µM) | 2 (≈ 6.83 µM) | 8 (≈ 27.3 µM) | 2 (≈ 6.83 µM) | 8 (≈ 27.3 µM) |
